Assays:
human cathepsin K = biological target: T1, human cathepsin K (Homo sapiens, UniProt P43235); test: Recombinant enzyme assay, human cathepsin K; assay type: biochemical
T1 construct: made in house; host or cells: E. coli
T1 sequence (P43235 115-329): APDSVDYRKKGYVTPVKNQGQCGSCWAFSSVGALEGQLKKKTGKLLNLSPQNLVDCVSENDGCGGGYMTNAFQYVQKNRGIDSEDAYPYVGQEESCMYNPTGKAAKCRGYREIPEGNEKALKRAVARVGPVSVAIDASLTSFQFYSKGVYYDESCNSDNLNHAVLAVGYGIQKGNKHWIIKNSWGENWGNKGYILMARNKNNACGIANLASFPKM
From the text: (§1) Recombinant cathepsin K enzymes from all species were expressed in E. coli, purified and activated. Human cathepsin F and cathepsin S were expressed in Baculovirus, purified and activated. Purified human cathepsins B and H (Athens Research Technology), cathepsin L (Calbiochem), and cathepsin V (R & D Systems) were purchased.
(§2) H-D-Ala_Leu-Lys-AMC was used as the substrate in assays of cathepsin K from non-rodent species (human, dog, rabbit and guinea pig), and Z-Leu-Arg-AMC was used as the substrate in assays of cathepsin K from rodent species (mouse and rat). […]
(§3) Assays were carried out in white polystyrene 96-well plates in a final volume of 100 µL. […] Plates were read in a Fluoroskan Ascent (Thermo Labsystems, Helsinki, Finland) in kinetic mode, with excitation and emission filters of 390 and 460 nm, respectively. Rates were determined by linear regression of the fluorescence/time data in Excel. Rates were fitted by non-linear regression to either the competitive inhibition equation, with the substrate concentration fixed at the value in the assay and the KM fixed to the value previously determined, or the IC50 equation using GraphPad Prism (GraphPad, version 6, San Diego, USA) to obtain Ki or IC50 values, respectively.

human cathepsin L = biological target: T2, human cathepsin L (Homo sapiens, UniProt P07711); test: Enzyme assay, human cathepsin L; assay type: biochemical; conditions: geometric mean
T2 construct: purchased Calbiochem
T2 sequence (P07711 114-333): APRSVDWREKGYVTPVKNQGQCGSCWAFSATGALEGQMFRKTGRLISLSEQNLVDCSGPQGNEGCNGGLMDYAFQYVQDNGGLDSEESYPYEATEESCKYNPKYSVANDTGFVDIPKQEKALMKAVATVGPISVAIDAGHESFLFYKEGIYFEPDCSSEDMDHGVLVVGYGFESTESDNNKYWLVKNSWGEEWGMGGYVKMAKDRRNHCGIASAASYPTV
From the text: as §1, §2, §3

human cathepsin F = biological target: T3, human cathepsin F (Homo sapiens, UniProt Q9UBX1); test: Enzyme assay, human cathepsin F; assay type: biochemical
T3 construct: made in house
T3 sequence (Q9UBX1 271-484): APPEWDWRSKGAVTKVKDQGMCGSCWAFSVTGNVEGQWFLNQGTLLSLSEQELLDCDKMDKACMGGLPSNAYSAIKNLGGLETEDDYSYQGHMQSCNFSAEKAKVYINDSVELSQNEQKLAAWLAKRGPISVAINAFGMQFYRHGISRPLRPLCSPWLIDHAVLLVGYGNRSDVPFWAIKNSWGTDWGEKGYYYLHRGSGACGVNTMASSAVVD
From the text: as §1, §2, §3

human cathepsin V = biological target: T4, human cathepsin V (Homo sapiens, UniProt O60911); test: Enzyme assay, human cathepsin V; assay type: biochemical
T4 construct: purchased R & D Systems
T4 sequence (O60911 114-334): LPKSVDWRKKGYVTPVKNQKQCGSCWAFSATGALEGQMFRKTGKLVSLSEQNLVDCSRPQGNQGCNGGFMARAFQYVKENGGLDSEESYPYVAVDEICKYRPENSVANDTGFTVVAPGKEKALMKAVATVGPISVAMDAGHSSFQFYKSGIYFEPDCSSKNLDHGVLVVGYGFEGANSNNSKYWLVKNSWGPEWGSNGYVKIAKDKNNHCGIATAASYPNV
From the text: as §1, §2, §3

rabbit cathepsin K = biological target: T5, rabbit cathepsin K (Oryctolagus cuniculus, UniProt P43236); test: Recombinant enzyme assay, rabbit cathepsin K; assay type: biochemical; conditions: footnote a: IC50
T5 construct: made in house; host or cells: E. coli
T5 sequence (P43236 115-329): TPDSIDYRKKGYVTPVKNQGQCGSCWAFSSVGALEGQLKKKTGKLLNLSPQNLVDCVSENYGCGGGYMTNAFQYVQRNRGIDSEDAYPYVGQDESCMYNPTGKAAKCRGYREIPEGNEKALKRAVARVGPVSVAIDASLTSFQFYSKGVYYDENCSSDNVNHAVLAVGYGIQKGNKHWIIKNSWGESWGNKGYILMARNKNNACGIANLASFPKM
From the text: as §1, §2, §3

plasma CTX-I [1] = test: Monkey plasma CTX-I, single oral dose; assay type: in vivo, cynomolgus monkeys (Macaca fascicularis)
Experimental: Eight cynomolgus monkeys (Macaca fascicularis) were used for measuring plasma levels of MIV-711 and CTX-I after a single dose. The animals were healthy young males, approximately 2–4 years old and weighing 3–4 kg. Experiments were performed at Covance Ltd (Harrogate, UK). The monkeys were used over an extended period of time (up to a year) and several cathepsin K inhibitors were evaluated during this time. At least 1 week was allowed for washout in between experiments. This was not believed to affect the results with MIV-711, and vehicle controls were run on a regular basis when appropriate. Each animal received at least one dose of MIV-711 and one dose of vehicle with at least 1 week of washout in between treatments.
In single dose experiments, animals were dosed with vehicle or MIV-711 (3–30 µmol/kg) via oral gavage at a dose volume of 4 mL/kg between 7:30 and 9:00 a.m. Blood samples were collected at baseline, 30 min, 1, 2, 4, 8, 12, 24 and 48 h after dose from the femoral vein and transferred into lithium heparin anticoagulant tubes. The samples were centrifuged and the two aliquots of the resultant plasma were frozen at − 70 °C. All samples were processed and stored within 30 min of collection. The aliquots were used to determine the MIV-711 concentration and CTX-I levels, respectively. [drawing 1]
Since the concentration of MIV-711 was measured in each animal it was possible to relate the MIV-711 exposure over 24 h to the % CTX-I inhibition over 24 h in each animal.
(§4) The quantification of CTX-I in monkey plasma samples and human serum samples was performed using a commercially available kit (Serum CrossLaps ELISA, IDS Nordic, Herlev, Denmark). The levels of CTX-I in monkey urine samples were measured using a commercially available kit (Urine BETA CrossLaps ELISA, IDS Nordic). The quantification of NTX-I in monkey samples was performed using a commercially available kit (Osteomark NTx Urine, Wampole Laboratories, Inc, Princeton, USA). Urinary levels of CTX-II in monkey samples were measured using a commercially available kit (Urine CrossLaps EIA, IDS Nordic). The concentrations of biomarkers in the urine samples were corrected for creatinine concentrations. The creatinine levels in urine were determined at Swedish University of Agricultural Sciences, using the enzymatic assay (cat no. 8L24-01) on the Abbott system Architect c4000.

plasma CTX-I [2] = test: Monkey plasma CTX-I, repeat oral doses; assay type: in vivo, cynomolgus monkeys (Macaca fascicularis)
Experimental: Repeat dosing experiments were performed in four male monkeys from the group outlined above (Covance). Vehicle or MIV-711 (30 µmol/kg) was given via oral gavage once daily for 5 days between 7:30 and 8:30 a.m. Plasma for CTX-I measurements was collected on Day 1 at baseline, 1, 2, 4, 8 and 12 h after dose, on Days 2, 3 and 4 early in the morning before next dose (i.e. at trough), and on Day 5 at trough, 1, 2, 4, 8, 12 and 24 h after dose. [drawing 2]
as §4

[3] = 30 µmol/kg p.o. once daily, Day 5

C#C[C@@H]1CN(C(=O)[C@H](CC(C)C)NC(=O)c2ccc(-c3nc(N4CCN(C)CC4)sc3F)cc2)[C@@H]2C(=O)CO[C@H]12 [MIV-711]
Selectivity versus the other human cathepsins tested (human cathepsin K; cathepsin K vs cathepsins B, L, F, V, H, S): more than 1300 fold
Ki (human cathepsin K; human recombinant cathepsin K, geometric mean): 0.98 nM
Ki (human cathepsin L): 1700 nM
Ki (human cathepsin F): 2800 nM
Ki (human cathepsin V): 4000 nM
IC50 (rabbit cathepsin K): 3.3 nM
Effect on plasma CTX-I versus vehicle (plasma CTX-I [1]; 3 µmol/kg p.o. (p > 0.05)): did not differ significantly vs. vehicle
Effect on plasma CTX-I versus vehicle (plasma CTX-I [1]; 10 µmol/kg p.o., between 8 and 24 h post-dose (p < 0.05)): statistically significant versus vehicle
Exposure required for 50% reduction of CTX-I at 24 h post dose (plasma CTX-I [1]; AUC0–24h): 1.5 µmol/L/h
Reduction of plasma CTX-I compared to baseline (plasma CTX-I [1]; highest dose (30 µmol/kg p.o.), 24 h post-dose): 57%
Maximum reduction of plasma CTX-I from baseline (plasma CTX-I [2]; 30 µmol/kg p.o. once daily, Day 1, 12 h post dose): 76%
Maximal reduction of plasma CTX-I vs initial baseline (plasma CTX-I [2]; [3]): 67%
Trough plasma CTX-I lower than baseline (plasma CTX-I [2]; [3]): 38%
Trough plasma CTX-I lower than baseline (plasma CTX-I [2]; 30 µmol/kg p.o., after the first dose on Day 1): 48%

Reference: article PMC5944028, “Nonclinical and clinical pharmacological characterization of the potent and selective cathepsin K inhibitor MIV-711” (Journal of Translational Medicine, 2018)
